Results published in patent US20080081835A1, “Use of Ltb4 Inhibitors for the Treatment of B-Cell Leukemias and Lymphomas” (priority 2004, published 2008).

Experiments:
[1] = test system: B-CLL cells; test: DNA synthesis (3H-thymidine incorporation) in B-CLL cells activated by CD40L-L cells, 96 hr co-culture; type: cell-based, human
Protocol: FIG. 3 depicts the effects of leukotriene biosynthesis inhibitors on CD40L-induced thymidine incorporation in B-CLL cells. B-CLL cells (2×10^5) were co-cultured with either irradiated L cells alone (L), irradiated CD40L-L cells or irradiated CD40L-L cells plus indicated inhibitor for 96 hr. When inhibitors were used, B-CLL cells were pre-treated with the inhibitor for 30 min prior co-culturing with L cells or CD40L-L cells. The inhibitors used were: […]. The control result reported in the Figure represents B-CLL cells co-cultured with irradiated CD40L-L cells alone. ^3H-thymidine (1 μCi) was present for the final eight hours. Activation of B-CLL cells with CD40L-L treatment led to between 3580 and 15369 cpm (^3H-thymidine) incorporation (control) in different experiments. This was set as 100% in each experiment. […] Student's t-test was used to calculate statistics i.e. control vs. control plus indicated compound(s) (** P<0.01, *** P<0.001). B-cells were isolated from patients suffering with B-CLL or B-prolymphocytic leukemia (B-PLL) who had not received chemotherapy within during the previous six weeks (see Table 1 below). Peripheral blood samples were obtained after informed consent and with local ethics committee approval. Blood samples were Ficoll-Isopaque purified and washed twice in phosphate buffered saline (PBS). After that, cells were either frozen in PBS with 50% human AB serum and 10% dimethylsulfoxide or analyzed fresh. Frozen cell samples were thawed and washed in ice cold fetal calf serum and subsequently in PBS before analysis. Cells from two patients were used twice, both freshly isolated cells and after freezing with similar results. […]. The purity of the isolated cells was estimated by flow cytometric analysis (with FACS Calibur, Becton Dickinson, Mountain View, Calif.). Morphological analysis was performed after staining with May-Grunewald/Giemsa solution. The purity of B-CLL and B-PLL cells was >98%. Purified B-CLL cells were cultured in RPMI 1640 medium, supplemented with 10% FCS, 2 mM L-glutamine, 100 U/mL penicillin and 100 μg/mL streptomycin and incubated at […] in an atmosphere of 5% CO2. 2×10^5 of B-CLL cells were seeded in 200 μL medium in 96-well plates. B-CLL cells were pretreated with MK-886 (a specific FLAP inhibitor) (10^−6 to 10^−9 M) or BWA4C (a specific 5-LO inhibitor) (10^−7 to 10^−9 M) for 30 min, before co-culturing with irradiated (15,000 Rad) CD40L expressing L (CD40L-L) cells or control L (L) cells in the presence of inhibitors. LTB4 (10^−7 M) was present in the indicated cultures. Each sample was represented by triplicates. 1 μCi ^3H-thymidine was present in the wells for the final eight […] of the 96 hr cultures. The cells were harvested onto glass fibre filter and radioactivity was measured in a liquid scintillation counter.

[2] = test system: B-CLL cells; test: Flow cytometry (FACS) analysis of CD23, CD54 and CD150 expression in CD40L activated B-CLL cells; type: cell-based, human; conditions: for effect on CD40-induced increased expression of CD23, CD54 and CD150: 100 nM, 96 hrs
Protocol: FIG. 4 depicts the effects of leukotriene biosynthesis inhibitors on the expression of CD23, CD54 and CD150 in CD40L activated B-CLL. Purified B-CLL cells were co-cultured with either L cells or CD40L-L cells in the absence or presence of MK886 (10^−7 M), BWA4C (10^−7 M), and/or LTB4 (10^−7 M) for 96 hrs. When inhibitors were used, B-CLL cells were pre-treated with the inhibitor for 30 min prior to co-culturing with L cells or CD40L-L cells. B-CLL cells were collected and analysed by FACS with antibodies against CD23, CD54 or CD150. The figure depicts one typical experiment out of six. […] Cultured (described above) B-CLL cells were collected (without the plastic attached L cells) and used for FACS detection. Surface marker expression was detected by indirect immunofluorescence. One million cells/sample were washed in cold PBS containing 1% FCS and 0.1% sodium azide and then exposed to the relevant antibodies. The cells were washed and incubated with the RPE conjugated secondary antibody. All incubations were done at 4° C. Samples were run on a Becton Dickinson FACScan flow cytometer (Becton Dickinson, Mountain View, Calif.). The CellQuest software (Becton Dickinson) was used both for acquisition and analysis of the samples. Ten thousand events were collected on a FACScan flow cytometer, and the results were analysed using CellQuest (Becton Dickinson) software. Only the viable cells were considered for analysis based on their light scatter (FSC/SSC) characteristics. The following antibodies were used: MAb MHM-6 (anti-CD23, from Dr. M. Rowe, University of Wales, Cardiff, Wales, UK), MAb LB-2 (anti-CD54, from E. A. Clark, University of Washington, Seattle, Wash.), MAb IPO-3 (anti-SLAM, kind gift from S. Sidorenko, Acad. of Science of Ukraine, Kiev, Ukraine) and RPE conjugated rabbit anti-mouse Ig F(ab′)2 (Dako, Copenhagen, Denmark) were used as secondary antibody.

[3] = test system: serum proteins; conditions: Can. J. Physiol. Pharmacol. 67, 456 (1989); cited from earlier work
[4] = test system: human lung cancer cells; conditions: cited from earlier work
[5] = test system: malignant cells from patients with acute or chronic myelogenous leukemia; conditions: cited from earlier work
[6] = test system: B-CLL cells; test: Biosynthesis of LTB4 by intact B-CLL cells (HPLC analysis); type: cell-based, human; conditions: intact cells preincubated with diamide (100 μM, two minutes), then A23187 (1 μM) and arachidonic acid (40 μM); mean of six experiments; without diamide 2.6±0.8
Protocol: pre-incubated (intact cells) with diamide (100 μM) for two minutes, followed by stimulation with A23187 (1 μM) and arachidonic acid (40 μM).
10×10^6 cells were suspended in 1 mL PBS and pre-incubated for two minutes with/without azodicarboxylic acid bis(dimethylamide), abbreviated diamide, (100 μM) prior to stimulation with arachidonic acid (40 μM) and/or calcium ionophore A23187 (1 μM). The cells were stimulated for five minutes at 37° C. and the incubations were terminated with 1 mL methanol.
After addition of 0.5 ml PBS and the internal standard PGB1 (100 pmol) to the samples, the cells were centrifuged (2500 rpm, 5 min). The supernatant was subsequently subjected to solid phase extraction on Chromabond C18 columns (200 mg, Macherey & Nagel). The methanol eluate was analysed on Waters Alliance 2695 reverse phase HPLC and detected with Waters PDA 996. Methanol:water:trifiuoroacetic acid (70:30:0.007, v/v) was used as mobile phase at a flow rate of 1.2 mL/min. Qualitative analysis was performed by comparison of retention times of synthetic standards and quantitative determinations were performed by computerized integration of the area of eluted peaks.

SMILES: CCCCC/C=C\C[C@@H](O)/C=C/C=C/C=C\[C@@H](O)CCCC(=O)O [LTB4]
- reversal of the inhibitory action of 100 nM BWA4C on thymidine incorporation ([1]; exogenous addition, 150 nM): almost completely reversed
- reversal of the inhibitory effect of MK-886 on thymidine incorporation ([1]; exogenously added, 150 nM): almost completely reversed
- effect on CD40-induced thymidine incorporation, alone ([1]; final concentration 150 nM, no inhibitor): did not amplify
- reversal of the inhibitory effect of the inhibitors (MK-886, BWA4C) on antigen expression ([2]; 150 nM): almost completely reversed
- effect alone on the expression of CD23, CD54 and CD150 ([2]; without inhibitor): did not cause any significant effect

SMILES: CC(C)c1ccc2c(c1)c(SC(C)(C)C)c(CC(C)(C)C(=O)O)n2Cc1ccc(Cl)cc1 [MK-886]
- binding to serum proteins [3]: relatively high binding
- effect on DNA synthesis induced by CD40-ligand stimulation ([1]; 100 nM): markedly inhibited DNA synthesis
- inhibition at 0.1 µM ([1]; Homo sapiens, 100 nM inhibitor, CD40L-L stimulated B-CLL cells, 96 hr, read-out: inhibitory action on thymidine incorporation): 38%
- inhibition at 1 µM ([1]; Homo sapiens, 1 μM inhibitor, CD40L-L stimulated B-CLL cells, 96 hr, read-out: inhibitory action on thymidine incorporation): 46%
- antiproliferative effects [4]: antiproliferative effects
- antiproliferative effects [5]: antiproliferative effects
- effect on CD40-induced increased expression of CD23, CD54 and CD150 [2]: markedly counteracted

SMILES: CN(C)C(=O)/N=N/C(=O)N(C)C [diamide, Azodicarboxylic acid bis(dimethylamide)]
- production of LTB4 [6]: 33.5±1.2 pmol/10^6 cells

SMILES: CC(=O)N(O)C/C=C/c1cccc(Oc2ccccc2)c1 [BWA4C]
- effect on thymidine incorporation ([1]; 10 nM): significant inhibitory effect
- potency to block DNA synthesis compared with MK-886 ([1]; FIG. 3B): even more potent inhibitor than MK-886
- effect on CD40-induced increased expression of CD23, CD54 and CD150 [2]: markedly counteracted
